Data from ChEMBL document CHEMBL3769303, “Discovery of membrane active benzimidazole quinolones-based topoisomerase inhibitors as potential DNA-binding antimicrobial agents” (Eur J Med Chem, 2016).
In brackets after ≈: the same amount, converted by molar mass.

What was measured:
Type in all cases: functional
Micrococcus luteus = assay: Antibacterial activity against Micrococcus luteus ATCC 4698 by micro broth dilution method; details: NCTC 2665
Escherichia coli [1] = assay: Antibacterial activity against Escherichia coli DH52 by micro broth dilution method
Staphylococcus aureus [2] = assay: Antibacterial activity against methicillin-resistant Staphylococcus aureus N315 by micro broth dilution method
Escherichia coli [3] = assay: Antibacterial activity against Escherichia coli JM109 by micro broth dilution method
Shigella dysenteriae = assay: Antibacterial activity against Shigella dysenteriae by micro broth dilution method
Salmonella enterica = assay: Antibacterial activity against Salmonella enterica ATCC 14028 by micro broth dilution method
[4] = Antibacterial activity against Bacillus proteus ATCC 13315 by micro broth dilution method
Saccharomyces cerevisiae = assay: Antifungal activity against Saccharomyces cerevisiae ATCC 9763 after 24 hrs by micro broth dilution method; details: ATCC 9763, 24 h
Staphylococcus aureus [5] = assay: Antibacterial activity against Staphylococcus aureus ATCC 25923 by micro broth dilution method
Pseudomonas aeruginosa = assay: Antibacterial activity against Pseudomonas aeruginosa ATCC 27853 by micro broth dilution method
Cyberlindnera jadinii = assay: Antifungal activity against Candida utilis ATCC 9950 after 24 hrs by micro broth dilution method; details: Williopsis jadinii, ATCC 9950, 24 h
Bacillus spizizenii = assay: Antibacterial activity against Bacillus subtilis ATCC 6633 by micro broth dilution method
Aspergillus flavus = assay: Antifungal activity against Aspergillus flavus ATCC 204304 after 24 hrs by micro broth dilution method; details: ATCC 204304, 24 h
[6] = Antifungal activity against Candida mycoderma ATCC 9888 after 24 hrs by micro broth dilution method; details: Candida vini
Candida albicans = assay: Antifungal activity against Candida albicans ATCC 10231 after 24 hrs by micro broth dilution method; details: ATCC 10231, 24 h

| Compound | MIC (Micrococcus luteus) [µg/mL] | MIC (Escherichia coli [1]) [µg/mL] | MIC (Staphylococcus aureus [2]) [µg/mL] | MIC (Escherichia coli [3]) [µg/mL] | MIC (Shigella dysenteriae) [µg/mL] | MIC (Salmonella enterica) [µg/mL] | MIC [4] [µg/mL] | MIC80 (Saccharomyces cerevisiae) [µg/mL] | MIC (Staphylococcus aureus [5]) [µg/mL] | MIC (Pseudomonas aeruginosa) [µg/mL] | MIC80 (Cyberlindnera jadinii) [µg/mL] | MIC (Bacillus spizizenii) [µg/mL] | MIC80 (Aspergillus flavus) [µg/mL] | MIC80 [6] [µg/mL] | MIC80 (Candida albicans) [µg/mL] |
| --- | --- | --- | --- | --- | --- | --- | --- | --- | --- | --- | --- | --- | --- | --- | --- |
| CCCCCCCCCCCCCCCCCCn1c(CN2CCN(c3cc4c(cc3F)c(=O)c(C(=O)O)cn4CC)CC2)nc2ccccc21 | 128 (≈ 182 µM) | 256 (≈ 365 µM) | 128 (≈ 182 µM) | 256 (≈ 365 µM) | 256 (≈ 365 µM) | 256 (≈ 365 µM) | 256 (≈ 365 µM) | 128 (≈ 182 µM) | 256 (≈ 365 µM) | 256 (≈ 365 µM) | 64 (≈ 91.2 µM) | 128 (≈ 182 µM) | 64 (≈ 91.2 µM) | 64 (≈ 91.2 µM) | 128 (≈ 182 µM) |
| CCn1cc(C(=O)O)c(=O)c2cc(F)c(N3CCN(Cc4nc5ccccc5n4Cc4ccc([N+](=O)[O-])cc4)CC3)cc21 | 4 (≈ 6.84 µM) | 16 (≈ 27.4 µM) | 8 (≈ 13.7 µM) | 8 (≈ 13.7 µM) | 4 (≈ 6.84 µM) | 4 (≈ 6.84 µM) | 16 (≈ 27.4 µM) | 4 (≈ 6.84 µM) | 4 (≈ 6.84 µM) | 4 (≈ 6.84 µM) | 4 (≈ 6.84 µM) | 2 (≈ 3.42 µM) | 8 (≈ 13.7 µM) | 16 (≈ 27.4 µM) | 4 (≈ 6.84 µM) |
| O=C(O)c1cn(C2CC2)c2cc(N3CCN(Cc4nc5ccccc5n4Cc4ccc([N+](=O)[O-])cc4)CC3)c(F)cc2c1=O | 8 (≈ 13.4 µM) | 16 (≈ 26.8 µM) | 2 (≈ 3.35 µM) | 8 (≈ 13.4 µM) | 8 (≈ 13.4 µM) | 16 (≈ 26.8 µM) | 8 (≈ 13.4 µM) | 1 (≈ 1.68 µM) | 4 (≈ 6.7 µM) | 4 (≈ 6.7 µM) | 2 (≈ 3.35 µM) | 4 (≈ 6.7 µM) | 1 (≈ 1.68 µM) | 4 (≈ 6.7 µM) | 2 (≈ 3.35 µM) |
| O=C(O)c1cn(C2CC2)c2cc(N3CCN(Cc4nc5ccccc5[nH]4)CC3)c(F)cc2c1=O | 0.125 (≈ 0.271 µM) | 0.125 (≈ 0.271 µM) | 0.125 (≈ 0.271 µM) | 0.5 (≈ 1.08 µM) | 1 (≈ 2.17 µM) | 0.125 (≈ 0.271 µM) | 0.125 (≈ 0.271 µM) | 0.0625 (≈ 0.135 µM) | 0.25 (≈ 0.542 µM) | 0.5 (≈ 1.08 µM) | 0.125 (≈ 0.271 µM) | 0.125 (≈ 0.271 µM) | 0.5 (≈ 1.08 µM) | 0.125 (≈ 0.271 µM) | 0.0625 (≈ 0.135 µM) |
| CCn1cc(C(=O)O)c(=O)c2cc(F)c(N3CCN(Cc4nc5ccccc5n4Cc4ccc(Cl)cc4Cl)CC3)cc21 | 0.25 (≈ 0.411 µM) | 1 (≈ 1.64 µM) | 0.125 (≈ 0.205 µM) | 4 (≈ 6.57 µM) | 2 (≈ 3.29 µM) | 0.25 (≈ 0.411 µM) | 1 (≈ 1.64 µM) | 2 (≈ 3.29 µM) | 4 (≈ 6.57 µM) | 1 (≈ 1.64 µM) | 0.5 (≈ 0.822 µM) | 8 (≈ 13.1 µM) | 1 (≈ 1.64 µM) | 1 (≈ 1.64 µM) | 0.5 (≈ 0.822 µM) |
| O=C(O)c1cn(C2CC2)c2cc(N3CCN(Cc4nc5ccccc5n4Cc4cccc(F)c4)CC3)c(F)cc2c1=O | 64 (≈ 112 µM) | 256 (≈ 449 µM) | 8 (≈ 14 µM) | 256 (≈ 449 µM) | 256 (≈ 449 µM) | 4 (≈ 7.02 µM) | 128 (≈ 225 µM) | 128 (≈ 225 µM) | 256 (≈ 449 µM) | 16 (≈ 28.1 µM) | 256 (≈ 449 µM) | 32 (≈ 56.2 µM) | 16 (≈ 28.1 µM) | 64 (≈ 112 µM) | 64 (≈ 112 µM) |
| O=C(O)c1cn(C2CC2)c2cc(N3CCN(c4nc5ccccc5[nH]4)CC3)c(F)cc2c1=O | 1 (≈ 2.23 µM) | 1 (≈ 2.23 µM) | 0.5 (≈ 1.12 µM) | 2 (≈ 4.47 µM) | 0.5 (≈ 1.12 µM) | 1 (≈ 2.23 µM) | 2 (≈ 4.47 µM) | 1 (≈ 2.23 µM) | 1 (≈ 2.23 µM) | 0.5 (≈ 1.12 µM) | 4 (≈ 8.94 µM) | 2 (≈ 4.47 µM) | 1 (≈ 2.23 µM) | 16 (≈ 35.8 µM) | 2 (≈ 4.47 µM) |
| NC1CCN(c2c(F)cc3c(=O)c(C(=O)O)cn(C4CC4)c3c2Cl)C1 (stereo not drawn) [CLINAFLOXACIN] | 0.5 (≈ 1.37 µM) | 0.5 (≈ 1.37 µM) | 1 (≈ 2.73 µM) | 0.5 (≈ 1.37 µM) | 0.5 (≈ 1.37 µM) | 0.25 (≈ 0.683 µM) | 0.5 (≈ 1.37 µM) | – | 0.5 (≈ 1.37 µM) | 0.5 (≈ 1.37 µM) | – | 0.5 (≈ 1.37 µM) | – | – | – |
| O=C(O)c1cn(C2CC2)c2cc(N3CCNCC3)c(F)cc2c1=O [CIPROFLOXACIN] | 2 (≈ 6.04 µM) | – | 2 (≈ 6.04 µM) | – | 2 (≈ 6.04 µM) | 1 (≈ 3.02 µM) | 2 (≈ 6.04 µM) | – | 0.5 (≈ 1.51 µM) | 1 (≈ 3.02 µM) | – | 2 (≈ 6.04 µM) | – | – | – |
